pIC50: −log10 of the molar value.
Tested on: TCF/LEF luciferase Reporter in DLD1 cells
Assay: TCF reporter assay (DLD1 TCF/LEF luciferase reporter, Bright-Glo)
Format: cell-based
Conditions: read-out: DLD1 4% Abs IC50; DLD1 4%
How it was run: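 DLD1 cells stably carrying a TCF/LEF luciferase reporter were plated at 5000 cells/well in RPMI + 4% FBS and treated overnight with a 1:2 compound dilution series. Bright-Glo luminescence read on day 3; viability by CellTiter-Glo. Absolute IC50 determined.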

Q: How did the pIC50 turn out when CC(=O)N1CCC[C@]12CC=CCCCC1(CCCC=CCCCOC(=O)N3CC[C@@](C(=O)N[C@@H](Cc4ccsc4)C(=O)N[C@@H](Cc4csc5ccccc45)C(=O)N[C@@H](CCC(N)=O)C(=O)N[C@H](C)C(N)=O)(C3)NC(=O)[C@H](CC(N)=O)NC(=O)[C@H](Cc3ccccc3)NC(=O)[C@H](C)NC(=O)[C@H](C)NC(=O)[C@H](CC(=O)O)NC(=O)[C@H](CC(=O)O)NC1=O)NC(=O)[C@H](CC(C)(C)C)NC(=O)[C@H](CC(=O)O)NC2=O (stereo partly drawn) [I-822, Ac-PL3-Asp-Npg-B5-Asp-Asp-Ala-Ala-Phe-Asn-PyrS2-3Thi-BztA-Gln-dAla-NH2] was run?
A: 5.14

Reference: US20240116985A1, “STAPLED PEPTIDES AND METHODS THEREOF” (priority 2020, published 2024)
